Legend:
Experiment in all cases: DRaCALA with […]-pyruvate and competition with cold pyruvate, membrane vesicles
Format in all cases: binding
BtsS [1] = biological target: T1, BtsS (Escherichia coli, UniProt P0AD14, C110A)
T1 construct: BtsS-C110A-6His in membrane vesicles of E. coli MG1655 ΔbtsSRΔypdABC

BtsS [2] = biological target: T2, BtsS (Escherichia coli, UniProt P0AD14, R99A)
T2 construct: BtsS-R99A-6His in membrane vesicles of E. coli MG1655 ΔbtsSRΔypdABC

BtsS [3] = biological target: T3, BtsS (Escherichia coli, UniProt P0AD14, R72A)
T3 construct: BtsS-R72A-6His in membrane vesicles of E. coli MG1655 ΔbtsSRΔypdABC
T3 sequence (P0AD14 whole entry R72A): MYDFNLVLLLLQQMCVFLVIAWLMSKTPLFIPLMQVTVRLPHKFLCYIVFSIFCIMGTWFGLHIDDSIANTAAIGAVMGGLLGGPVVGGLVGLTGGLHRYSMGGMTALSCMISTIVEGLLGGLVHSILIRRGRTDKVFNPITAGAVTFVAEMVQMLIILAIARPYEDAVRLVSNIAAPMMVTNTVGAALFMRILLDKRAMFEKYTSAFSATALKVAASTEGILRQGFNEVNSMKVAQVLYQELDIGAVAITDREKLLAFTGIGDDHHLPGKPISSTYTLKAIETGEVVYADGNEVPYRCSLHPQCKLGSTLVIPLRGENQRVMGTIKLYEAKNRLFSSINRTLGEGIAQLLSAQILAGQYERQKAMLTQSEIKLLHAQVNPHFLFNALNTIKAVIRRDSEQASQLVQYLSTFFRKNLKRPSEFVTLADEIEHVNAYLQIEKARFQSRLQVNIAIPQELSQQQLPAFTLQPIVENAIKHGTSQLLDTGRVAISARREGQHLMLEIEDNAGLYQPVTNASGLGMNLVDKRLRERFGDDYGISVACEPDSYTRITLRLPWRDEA

BtsS [4] = biological target: T4, BtsS (Escherichia coli, UniProt P0AD14)
T4 construct: BtsS-6His in membrane vesicles of E. coli MG1655 ΔbtsSRΔypdABC
T4 sequence (P0AD14 whole entry): as the sequence (P0AD14 whole entry R72A) above, with A72R counted along it

BtsS [5] = biological target: T5, BtsS (Escherichia coli, UniProt P0AD14, S113A)
T5 construct: BtsS-S113A-6His in membrane vesicles of E. coli MG1655 ΔbtsSRΔypdABC
T5 sequence (P0AD14 whole entry S113A): as the sequence (P0AD14 whole entry R72A) above, with A72R, S113A counted along it

T1 sequence (P0AD14 whole entry C110A): as the sequence (P0AD14 whole entry R72A) above, with A72R, C110A counted along it
T2 sequence (P0AD14 whole entry R99A): as the sequence (P0AD14 whole entry R72A) above, with A72R, R99A counted along it

With `CC(=O)C(=O)O` [pyruvate] the Kd (BtsS [1]) was 375 ± 21.2 µM, the Kd (BtsS [2]) was 245 ± 10.1 µM and the Kd (BtsS [3]) was 107 ± 12.3 µM. For the same compound, the Kd (BtsS [4]) was 67.3 ± 10.6 µM and the Kd (BtsS [5]) was 284 ± 8 µM.

From article PMC10653868, “The LytS-type histidine kinase BtsS is a 7-transmembrane receptor that binds pyruvate” (mBio, 2023)
